pIC50: −log10 of the molar value. Bounds are passed on as bounds.

From patent US9822124B2, “Bicyclic heteroaromatic carboxamide compounds useful as Pim kinase inhibitors” (Incyte Corporation, priority 2014, dated 2017) come the findings set out here.

Holding throughout (type): biochemical
One assay has as its target Pim-2 (Homo sapiens (Human), UniProt Q9P1W9). As to the kind of experiment: Pim-2 kinase assay (TR-FRET, Fluorescein-labeled CREBtide peptide substrate). As to conditions: 1 mM ATP; read-out: Pim2 IC50. The method, then:
Pim-2 kinase assay—20 μL reactions were run in white 384 well polystyrene plates dotted with 0.8 μL compound/DMSO in the assay buffer (50 mM Tris, pH 7.5, 0.01% Tween-20, 5 mM MgCl2, 0.01% BSA, 5 mM DTT), containing 0.05 μM Fluorescein-labeled CREBtide peptide substrate (Invitrogen PV3508), 1 mM ATP, and 1 nM enzyme (Invitrogen PV3649) for 2 h at 25° C. Reactions were stopped by addition of 10 μL TR-FRET Dilution Buffer (Invitrogen PV3574) with 30 mM EDTA and 1.5 nM LanthaScreen Tb-CREB pSer133 antibody (Invitrogen PV3566). After 30 min. incubation at room temperature, plates were read on a PHERAstar FS plate reader (BMG Labtech).
On the technique in general: In TR-FRET formats the signal depends on donor and acceptor labels being close together.

Another assay concerns the target Pim-1 (Homo sapiens (Human), UniProt P11309). The assay is described as follows: Pim-1 kinase assay (AlphaScreen, Biotin-labeled BAD peptide substrate). As to conditions: 1 mM ATP; read-out: Pim1 IC50. How it is done: (§1) Pim-1 and Pim-3 kinase assays—20 μL reactions were run in white 384 well polystyrene plates dotted with 0.8 μL compound/DMSO in the assay buffer (50 mM Tris, pH 7.5, 0.01% Tween-20, 5 mM MgCl2, 0.01% BSA, 5 mM DTT), containing 0.05 μM Biotin-labeled BAD peptide substrate (AnaSpec 62269), 1 mM ATP, and […] (Pim-1, Invitrogen PV3503) or […] (Pim-3, Millipore 14-738) enzyme for 1 h at 25° C. Reactions were stopped by addition of 10 μL STOP Buffer (150 mM Tris, pH=7.5, 150 mM NaCl, 75 mM EDTA, 0.01% Tween-20, 0.3% BSA) supplemented with Phospho-Bad (Ser112) Antibody (Cell Signaling 9291) diluted 666-fold, and Streptavidin donor beads (PerkinElmer 6760002) along with Protein-A acceptor beads (PerkinElmer 6760137) at 15 μg/mL each. Supplementation of the STOP buffer with beads and stopping the reactions were done under reduced light. Prior to the stopping reactions STOP buffer with beads was preincubated for 1 h in the dark at room temperature. After stopping the reactions, plates were incubated for 1 h in the dark at room temperature before reading on a PHERAstar FS plate reader (BMG Labtech) under reduced light.
Background: Bead proximity is the source of the signal in Alpha formats.

For a further assay, the target named is Pim-3 (Homo sapiens (Human), UniProt Q86V86). The assay is described as follows: Pim-3 kinase assay (AlphaScreen, Biotin-labeled BAD peptide substrate). As to conditions: 1 mM ATP; read-out: Pim3 IC50. How it is done: as §1

Pim-2, sequence (Q9P1W9 whole entry): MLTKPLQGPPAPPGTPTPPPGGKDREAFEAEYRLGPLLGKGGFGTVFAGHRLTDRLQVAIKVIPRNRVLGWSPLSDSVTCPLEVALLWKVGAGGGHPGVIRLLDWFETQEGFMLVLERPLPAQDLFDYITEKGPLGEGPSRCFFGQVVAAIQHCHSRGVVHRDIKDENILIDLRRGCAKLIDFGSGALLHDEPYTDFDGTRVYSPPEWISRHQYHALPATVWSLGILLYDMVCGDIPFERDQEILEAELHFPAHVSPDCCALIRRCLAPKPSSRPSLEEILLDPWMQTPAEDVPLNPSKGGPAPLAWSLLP
Pim-1, sequence (P11309 whole entry): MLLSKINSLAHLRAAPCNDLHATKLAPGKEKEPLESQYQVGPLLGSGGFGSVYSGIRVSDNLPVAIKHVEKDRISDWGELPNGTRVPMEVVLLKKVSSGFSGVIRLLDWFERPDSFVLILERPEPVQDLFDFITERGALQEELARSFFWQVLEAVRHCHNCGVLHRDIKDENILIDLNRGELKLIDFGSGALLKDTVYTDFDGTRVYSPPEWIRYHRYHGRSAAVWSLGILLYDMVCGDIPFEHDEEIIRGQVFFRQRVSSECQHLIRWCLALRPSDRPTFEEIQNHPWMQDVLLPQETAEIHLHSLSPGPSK

Take `C[C@@H]1C[C@H](N)CN(c2ccncc2NC(=O)c2ccc3occ(C4CCOC4)c3n2)C1` (mixture of isomers) [Example 31, N-(4-((3S,5R)-3-Amino-5-methylpiperidin-1-yl)pyridin-3-yl)-3-(tetrahydrofuran-3-yl)furo[3,2-b]pyridine-5-carboxamide]: the figures for the pIC50 on Pim-2, at Pim-1 and at Pim-3 were 6.00 to 7.00, not below 8.00 and not below 8.00, respectively.
`C[C@H]1CN(c2ccncc2NC(=O)c2ccc3cc([C@@H]4C[C@@H]4C)oc3n2)C[C@@H](N)[C@@H]1O` (racemic) [Example 73, N-{4-[(3R,4R,5S)-3-Amino-4-hydroxy-5-methylpiperidin-1-yl]pyridin-3-yl}-2-(cis-2-methylcyclopropyl)furo[2,3-b]pyridine-6-carboxamide]: the values for the pIC50 on Pim-2, at Pim-1 and on Pim-3 were not below 7.00, not below 8.00 and not below 8.00, respectively.
On to `C[C@@H]1C[C@H]1c1cc2ccc(C(=O)Nc3cnccc3N3C[C@@H](N)[C@H](O)[C@@H](C)C3)nc2o1` (racemic) [Example 74, N-{4-[(3R,4R,5S)-3-Amino-4-hydroxy-5-methylpiperidin-1-yl]pyridin-3-yl}-2-(trans-2-methylcyclopropyl)furo[2,3-b]pyridine-6-carboxamide], for which the results for the pIC50 on Pim-2, on Pim-1 and on Pim-3 were not below 7.00, not below 8.00 and not below 8.00, respectively.
Consider `C[C@@H]1C[C@H](N)CN(c2ccncc2NC(=O)c2ccc3cc([C@@H]4C[C@@H]4C)oc3n2)C1` (racemic) [Example 75, N-{4-[(3S,5R)-3-Amino-5-methylpiperidin-1-yl]pyridin-3-yl}-2-(cis-2-methylcyclopropyl)furo[2,3-b]pyridine-6-carboxamide], for which the negative logarithm of the IC50 (pIC50) on Pim-2 is not below 7.00; at Pim-1 it was not below 8.00; on Pim-3, not below 8.00.
Turning to `C[C@@H]1C[C@H](N)CN(c2ccncc2NC(=O)c2ccc3cc([C@@H]4C[C@H]4C)oc3n2)C1` (racemic) [Example 76, N-{4-[(3S,5R)-3-Amino-5-methylpiperidin-1-yl]pyridin-3-yl}-2-(trans-2-methylcyclopropyl)furo[2,3-b]pyridine-6-carboxamide], the pIC50 was not below 7.00 at Pim-2, not below 8.00 at Pim-1 and not below 8.00 on Pim-3.
Turning to `CCCc1cc2nc(C(=O)Nc3cnccc3N3C[C@H](C)C[C@H](N)C3)ccc2o1` [Example 1, N-(4-((3S,5R)-3-Amino-5-methylpiperidin-1-yl)pyridin-3-yl)-2-propylfuro[3,2-b]pyridine-5-carboxamide], the pIC50 was 6.00 to 7.00 at Pim-2, not below 8.00 at Pim-1 and not below 8.00 at Pim-3.
For `CC(C)c1cc2nc(C(=O)Nc3cnccc3N3C[C@H](C)C[C@H](N)C3)ccc2o1` [Example 2, N-{4-[(3S,5R)-3-Amino-5-methylpiperidin-1-yl]pyridin-3-yl}-2-isopropylfuro[3,2-b]pyridine-5-carboxamide], the results for the pIC50 on Pim-2, at Pim-1 and on Pim-3 were 6.00 to 7.00, 7.30 to 8.00 and not below 8.00, respectively.
On the same counts, the results for `COc1ccc(-c2cc3nc(C(=O)Nc4cnccc4N4C[C@H](C)C[C@H](N)C4)ccc3o2)cn1` [Example 3, N-(4-((3S,5R)-3-Amino-5-methylpiperidin-1-yl)pyridin-3-yl)-2-(6-methoxypyridin-3-yl)furo[3,2-b]pyridine-5-carboxamide] are less than 5.70, not below 8.00 and not below 8.00.
For `C[C@@H]1C[C@H](N)CN(c2ccncc2NC(=O)c2ccc3oc(-c4c(F)cccc4F)cc3n2)C1` [Example 4, N-(4-((3S,5R)-3-Amino-5-methylpiperidin-1-yl)pyridin-3-yl)-2-(2,6-difluorophenyl)furo[3,2-b]pyridine-5-carboxamide], the pIC50 at Pim-2 was less than 5.70; at Pim-1 it was not below 8.00; on Pim-3 it was 7.30 to 8.00.
Regarding `C[C@@H]1C[C@H](N)CN(c2ccncc2NC(=O)c2ccc3oc(-c4ccc(N5CCOCC5)nc4)cc3n2)C1` [Example 5, N-(4-((3S,5R)-3-Amino-5-methylpiperidin-1-yl)pyridin-3-yl)-2-(6-morpholinopyridin-3-yl)furo[3,2-b]pyridine-5-carboxamide], the figures for the pIC50 at Pim-2, on Pim-1 and at Pim-3 were 5.00 to 6.00, not below 8.00 and not below 8.00, respectively.
As for `CC(C)c1cc2nc(C(=O)Nc3cnccc3N3C[C@@H](N)[C@H](O)[C@@H](C)C3)ccc2o1` [Example 6, N-{4-[(3R,4R,5S)-3-Amino-4-hydroxy-5-methylpiperidin-1-yl]pyridin-3-yl}-2-isopropylfuro[3,2-b]pyridine-5-carboxamide], the pIC50 on Pim-2 is 6.00 to 7.00; on Pim-1, 7.30 to 8.00; on Pim-3, not below 8.00.
On the same counts, the results for `COc1ccc(-c2cc3nc(C(=O)Nc4cnccc4N4C[C@@H](N)[C@H](O)[C@@H](C)C4)ccc3o2)cn1` [Example 7, N-(4-((3R,4R,5S)-3-Amino-4-hydroxy-5-methylpiperidin-1-yl)pyridin-3-yl)-2-(6-methoxypyridin-3-yl)furo[3,2-b]pyridine-5-carboxamide] are less than 5.70, not below 8.00 and not below 8.00.
Take `C[C@H]1CN(c2ccncc2NC(=O)c2ccc3oc(-c4c(F)cccc4F)cc3n2)C[C@@H](N)[C@@H]1O` [Example 8, N-(4-((3R,4R,5S)-3-Amino-4-hydroxy-5-methylpiperidin-1-yl)pyridin-3-yl)-2-(2,6-difluorophenyl)furo[3,2-b]pyridine-5-carboxamide]: the pIC50 is less than 5.70 on Pim-2, not below 8.00 at Pim-1 and 7.30 to 8.00 on Pim-3.
Consider `C[C@H]1CN(c2ccncc2NC(=O)c2ccc3oc(-c4ccc(N5CCOCC5)nc4)cc3n2)C[C@@H](N)[C@@H]1O` [Example 9, N-(4-((3R,4R,5S)-3-Amino-4-hydroxy-5-methylpiperidin-1-yl)pyridin-3-yl)-2-(6-morpholinopyridin-3-yl)furo[3,2-b]pyridine-5-carboxamide], for which the pIC50 is 5.00 to 6.00 at Pim-2, not below 8.00 on Pim-1 and not below 8.00 on Pim-3.
As to `CC(C)c1coc2ccc(C(=O)Nc3cnccc3N3C[C@@H](N)[C@H](O)[C@@H](C)C3)nc12` [Example 10, N-(4-((3R,4R,5S)-3-Amino-4-hydroxy-5-methylpiperidin-1-yl)pyridin-3-yl)-3-isopropylfuro[3,2-b]pyridine-5-carboxamide], the pIC50 is not below 7.00 at Pim-2, not below 8.00 on Pim-1 and not below 8.00 on Pim-3.
As to `C[C@H]1CN(c2ccncc2NC(=O)c2ccc3occ(-c4c(F)cccc4F)c3n2)C[C@@H](N)[C@@H]1O` [Example 11, N-(4-((3R,4R,5S)-3-Amino-4-hydroxy-5-methylpiperidin-1-yl)pyridin-3-yl)-3-(2,6-difluorophenyl)furo[3,2-b]pyridine-5-carboxamide], the pIC50 is not below 7.00 on Pim-2, not below 8.00 on Pim-1 and not below 8.00 on Pim-3.
For the molecule `C[C@H]1CN(c2ccncc2NC(=O)c2ccc3occ(-c4ccccc4F)c3n2)C[C@@H](N)[C@@H]1O` [Example 12, N-(4-((3R,4R,5S)-3-Amino-4-hydroxy-5-methylpiperidin-1-yl)pyridin-3-yl)-3-(2-fluorophenyl)furo[3,2-b]pyridine-5-carboxamide], the pIC50 at Pim-2 was 6.00 to 7.00; at Pim-1, not below 8.00; on Pim-3, not below 8.00.

Broadly, the pIC50 is −log10 of the IC50, conventionally taken in molar units.
